Reference: patent publication US11260083B2, “Compositions and methods for treating and preventing graft versus host disease” (The Regents of the University of Michigan, priority 2016, dated 2022)

Assays:
[1] = test system: C3H.SW (H-2b) → C57BL/6J (H-2b) BMT recipients; test: MHC-matched, minor antigen mismatched BMT model with butyrate; type: in vivo, mouse
Method: BMTs were performed as previously described (Reddy, P. et al. A crucial role for antigen-presenting cells and alloantigen expression in graft-versus-leukemia responses. Nat. Med. 11, 1244-1249 (2005); 15). Briefly, syngeneic (BALB/c→BALC/c or C57BL/6J→C57BL/6J) and allogeneic (C57BL/6J→BALB/c or C3H.sw→C57BL/6J) recipients received lethal irradiation. On day −1, BALB/c recipients received a total of 800 cGy of irradiation (split dose separated by 3 hours) and B6 animals received a single dose of 1000 cGy. […] Survival was monitored daily and the recipient body weight and GVHD clinical scores were determined weekly, as described previously42. […]
Systemic administration of HDACi decreases acute GVHD (Reddy, P. et al. Histone deacetylase inhibitor suberoylanilide hydroxamic acid reduces acute graft-versus-host disease and preserves graft-versus-leukemia effect. Proc Natl Acad Sci USA 101, 3921-3926 (2004); Reddy, P. et al. Histone deacetylase inhibition modulates indoleamine 2,3-dioxygenasedependent DC functions and regulates experimental graft-versus-host disease in mice. J. Clin. Invest. 118, 2562-2573 (2008); Sun, Y. et al. Cutting edge: Negative regulation of dendritic cells through acetylation of the nonhistone protein STAT-3. J Immunol 182, 5899-5903 (2009)). It was therefore determined if increasing local levels of endogenous HDACi, butyrate, would impact GVHD severity. […]

[2] = test system: GI-barrier; test: FITC-dextran assay (intestinal permeability); type: in vivo, mouse; conditions: 21 days following transplant; butyrate-treated vs vehicle allo-BMT recipients
Method: Food and water was withheld from all mice for four hours on day 21 post bone marrow transplant. FITC-dextran (Sigma-Aldrich; St. Louis, Mo.) was administered by 20G-1.5″ flexible intragastric gavage needle (Braintree Scientific; Braintree, Mass.) at a concentration of 50 mg/ml in PBS. BMT recipients received 800 mg/kg (˜16 mg/mouse). Four hours later, serum was collected from peripheral blood, diluted 1:1 with PBS, and analyzed on a plate reader at excitation/emission wavelength of 485 nm/535 nm. Concentrations of FITCdextran experimental samples were determined based on a standard curve.
Intestinal permeability after allo-BMT was assessed by intragastric administration of FITC-dextran, a non-metabolized carbohydrate (Hanash, A. M. et al. Interleukin-22 protects intestinal stem cells from immune-mediated tissue damage and regulates sensitivity to graft versus host disease. Immunity 37, 339-350 (2012)).

[3] = test system: allogeneic (C57BL/6J→BALB/c) BMT recipients; test: Allo-BMT with Treg-depleted donor T cells (CD4+CD25− or DREG + DT) and butyrate; type: in vivo, mouse
Method: To further determine whether the salutary effects of local treatment with butyrate on GI GVHD were dependent on donor Treg cells, a BMT was performed utilizing the same HC mismatched BMT model in which C57BL/6J (H-2b) cells are transferred to Balb/c (H-2d) mice. T cell-depleted (TCD) bone marrow was transplanted and purified CD4+CD25− T cells from donors. Vehicle or butyrate was administered to the recipients daily for 1 week, then every other day thereafter as above. […]. J. Exp. Med. 204, 57-63 (2007); Lahl, K. & Sparwasser, T. In vivo depletion of FoxP3+ Tregs using the DEREG mouse model. […]. The Treg depleted T cells were then used as donor cells in the major MHC mismatch model used above. […] To further examine whether the local administration of butyrate impacted donor T cells directly, the HDAC and HAT enzymatic activity was determined in donor T cells harvested from the recipient animals. Both the HDAC activity or HAT activity in the donor T cells harvested from the recipient spleen were similar between butyrate and vehicle treated allogeneic animals.

[4] = test system: intestinal organoids; test: Intestinal organoid culture with butyrate; type: cell-based, mouse
Method: The potential mechanisms that contribute to butyrate-induced protection from severe GVHD were explored. Because (a) butyrate is decreased in IECs, (b) administration of butyrate mitigated GI GVHD independent of Treg cells, but (c) improved junction integrity, it was explored whether butyrate had direct effects on protecting IECs from allo-T cell mediated damage and conditioning. IECs were treated ex vivo with vehicle or butyrate for 24 hours irradiation (6 Gy) or no-irradition, followed by 24 hours of additional incubation with butyrate was performed. […] The ability of butyrate-treated IECs to withstand damage mediated by alloreactive T cells was determined by isolating and culturing primary IECs with butyrate or vehicle control, overnight. The pre-treated IECs were next co-cultured with primed allogeneic CD8+ T cells, in the absence of butyrate. […] Because butyrate is a primary energy source for IECs 1-13, it was next determined whether butyrate enhances survival and growth of IECs in vitro. To this end, intestinal organoids were cultured in the presence or absence of butyrate. […] Next, the impact of butyrate on IEC junctional function in the organoid cultures was confirmed by determining the mRNA expression of claudins (FIG. 5E).

[5] = Treg depleted (DREG + DT) donor T cells

Structure (SMILES): CCCC(=O)[O-].[Na+] [butyrate, sodium butyrate]
- histological scores in both the intestines and liver ([1]; 21 days following BMT, minor antigen mismatch): decreased histological scores
- survival ([1]; minor antigen mismatched model): improved survival
- detectable FITC-dextran in the serum [2]: significantly less
- GVHD ([3]; TCD bone marrow and purified CD4+CD25− donor T cells): Decreased GVHD
- clinical GVHD [3, 5]: Significantly improved clinical GVHD
- survival [3, 5]: improved survival
- weight loss [3, 5]: less weight loss
- organoid size ([4]; culture in the presence of butyrate): significantly increased
- mRNA expression of claudins (Cldn1, Cldn5, Cldn6, Cldn10, Cldn11, Cldn13, Cldn14, Cldn17, Cldn18) ([4]; organoids cultured with butyrate): significantly increased
